Experimental data as given in US20050032757A1, “Nutritional supplements” (priority 2003, published 2005).
Where a name gives a salt, the structure may show the parent alone.

Experiment: Evaluation of composition stability of PSE and fish oil mixtures with test reagents
Format: physicochemical
Conditions: fish oil 2 g
Method: Varying amounts of PSE and fish oil were mixed in a 50 ml beaker. The mixture was warmed to 35-40° C. A variety of test reagents, including surfactants and small carboxylic acid esters, were then examined for their ability to stabilize the mixture at room temperature (RT), 40° C., and 50° C.

[1] = Phytosterol 4 g, test reagent 0.10 g
[2] = Phytosterol 4 g, test reagent 0.20 g
[3] = Phytosterol 4 g, test reagent 0.30 g
[4] = Phytosterol 4 g, test reagent 0.40 g
[5] = Phytosterol 2 g, test reagent 0.10 g

Question: What does the source list for `O=C(O)CC(O)(CC(=O)O)C(=O)O` [Citric Acid]?
Answer: Stability results [1]: insoluble; Stability results [2]: insoluble; Stability results [3]: insoluble

Question: Which Stability results [1] does the source give for `CCOC(=O)[C@H](O)[C@@H](O)C(=O)OCC` [Diethyl L-tartrate] here?
Answer: Its Stability results is “stable (stable (did not separate for 24 hours))”.

Question: And the Stability results [2]?
Answer: Its Stability results is “stable (stable (did not separate for 24 hours))”.

Question: And the Stability results [3]?
Answer: The Stability results was “stable (stable (did not separate for 24 hours))”.

Question: For `CCOC(=O)/C=C\C(=O)OCC` [Diethyl Maleate], which Stability results [1] is on record?
Answer: Its Stability results is “stable (stable (did not separate for 24 hours))”.

Question: What about the Stability results [2] of the same compound?
Answer: The Stability results was “stable (stable (did not separate for 24 hours))”.

Question: And the Stability results [3]?
Answer: Its Stability results is “insoluble”.

Question: Which Stability results [1] does the source give for `OCC(O)CO` [Glycerin] here?
Answer: Its Stability results is “insoluble”.

Question: With `CCOC(=O)CC(O)(CC(=O)OCC)C(=O)OCC` [Triethyl Citrate] as the compound, how does the Stability results (Phytosterol 2 g, test reagent 0.30 g) read?
Answer: Its Stability results is “unstable (unstable (separated quickly, usually less than 1-2 hr))”.

Question: And the Stability results [1]?
Answer: The Stability results was “stable (stable (did not separate for 24 hours))”.

Question: And the Stability results [2]?
Answer: The Stability results was “stable (stable (did not separate for 24 hours))”.

Question: And the Stability results [3]?
Answer: Its Stability results is “stable (stable (did not separate for 24 hours))”.

Question: And the Stability results [4]?
Answer: Its Stability results is “stable (stable (did not separate for 24 hours))”.

Question: What does the source list for Polysorbate 20?
Answer: Stability results [1]: unstable (unstable (separated quickly, usually less than 1-2 hr)); Stability results [2]: unstable (unstable (separated quickly, usually less than 1-2 hr))

Question: For Polysorbate 60, which Stability results [5] is on record?
Answer: The Stability results was “unstable (unstable (separated quickly, usually less than 1-2 hr))”.

Question: And the Stability results [2]?
Answer: Its Stability results is “unstable (unstable (separated quickly, usually less than 1-2 hr))”.

Question: And the Stability results [3]?
Answer: Its Stability results is “unstable (unstable (separated quickly, usually less than 1-2 hr))”.

Question: What about the Stability results [4] of the same compound?
Answer: The Stability results was “unstable (unstable (separated quickly, usually less than 1-2 hr))”.

Question: Which results are given for Polysorbate 80?
Answer: Stability results [5]: unstable (unstable (separated quickly, usually less than 1-2 hr)); Stability results [2]: unstable (unstable (separated quickly, usually less than 1-2 hr))

Question: Which Stability results [2] does the source give for Sodium Caproyl Lactylate here?
Answer: The Stability results was “unstable (unstable (separated quickly, usually less than 1-2 hr))”.

Question: Which Stability results [1] does the source give for Sodium Isostearyl Lactylate here?
Answer: The Stability results was “unstable (unstable (separated quickly, usually less than 1-2 hr))”.

Question: Which results are given for Sorbitan Oleate?
Answer: Stability results [1]: unstable (unstable (separated quickly, usually less than 1-2 hr)); Stability results [2]: unstable (unstable (separated quickly, usually less than 1-2 hr)); Stability results [3]: unstable (unstable (separated quickly, usually less than 1-2 hr)); Stability results [4]: unstable (unstable (separated quickly, usually less than 1-2 hr))
